Like-named read-outs stand apart in the source and are kept apart here.
Key:
[1] = tested on: HEK293H, HEK293T, H4IIe, MCF7 and SH-SY5Y cells; details: for cytotoxicity,median REPBPA,IC10: median IC10 relative to BPA; for IC10,Median (M): median cytotoxicity of all cell lines; for IC10, median: median cytotoxicity over all cell lines
Procedure: Cell culture conditions and bioassay protocols including response detection are provided in Text S2.1–2.4 and Table S3. − Cell viability was determined from cell confluency using an IncuCyte S3 Live-Cell Analysis System (Sartorius AG, Essen, Germany) before and after exposure, except for SH-SY5Y cells (live–dead staining with Nuclear Green LcS1 and propidium iodide, Abcam, UK). For metabolic activation experiments, cell viability was assessed using the ToxBLAzer DualScreen Kit (Thermo Fisher Scientific) to capture the remaining toxicity in ERα-UAS-bla GripTite after treatment with the aCYP catalyst (details in Text S2.4).
For ARE, the concentration that triggered an induction ratio of 1.5 (ECIR1.5) was used as the benchmark value, as detailed in Text S2.5. IC10 values also served as a threshold for data analysis in all assays; only concentrations below IC10 were considered when deriving EC10 or ECIR1.5.
TR indicates whether the cytotoxicity is triggered by specific toxicity mechanisms (TR ≥ 10) or not (0.1< TR< 10). 3 TR=IC10,baseline/IC10 We measured the cytotoxicity of BPA and its alternatives in HEK293H (PPARγ), HEK293T (ERα), H4IIe (AhR CALUX), MCF7 (ARE/MMP), and differentiated SH-SY5Y cells (Table S6). […]
medium, supplemented with 2% B-27 Supplement and 2 mM GlutaMAX Supplement. SH - SY5Y cells were differentiated with 10 µM all-trans retinoic acid prior to the assay.
S2.2: Cell Seeding and Incubation. For all bioassays, cell suspensions in the respective assay medium were dispensed into each well of 384-well plates using a MultiFlo Dispenser (Biotek, (now Agilent), Winooski, VT, U.S.). After seeding, the plates were incubated at 37° C and 5% CO₂ for […]. The final cell densities and plate types were as follows: Black poly-D-lysine […]
6500 cells/well, ERα: 5000 cells/well. White 384-well plates with a clear bottom (Product No.
NYC, U.S.) for AhR: 3250 cells/well. Black Collagen I coated plates were used (Product No.
S2.3: Chemical Dosing and Assay Analysis Procedures. The dosing procedure and high-throughput assay workflow have been described in detail before. 9 The dosing concentrations […]
Stock solutions were then either added directly to the respective cell culture medium or evaporated under nitrogen, followed by replenishment with fresh medium. The final solvent content in each well was kept below 1% for methanol, 0% for acetonitrile.
Dosing plates were prepared as 11 -step serial dilutions using a Hamilton Microlab Star robotic system (Hamilton, Bonaduz, Switzerland), and chemicals were dosed in duplicates by transferring 10 μL twice from the dosing plates to the cell plates . After quantifying cell confluency as described in S2. 4., the exposed cells were incubated at 37° C and 5% CO₂ for an additional 24 h. All chemicals were tested in all assays with at least three independent […]
S2.4: Cell Viability Measurement s and bioanalytical protocols . The confluency as a measure of cell viability was determined with an IncuCyte S3 Live -Cell Analysis System (Sartorius AG, Essen, Germany). With this method the confluency of cells in a microscopy image are normalized to control wells without cells and compared before and after 24 hours of exposure.
This method has been described previously 13. Cell viability of SH-SY5Y cells was measured […]
propidium iodide (PI, Abcam, Cambridge, U.K.).14 Nuclear Green LCS1 is a membrane-permeable dye that stains the nuclei of all cells, whereas PI only enters cells with compromised membrane integrity (non-viable cells). After staining, live cells show green nuclei without red fluorescence, while dead cells display both green and red nuclear fluorescence due to PI […]
intercalation. Cell viability was calculated as the proportion of green-only nuclei relative to the […]
For experiments with the preceding aCYP activation, ERα cell viability was additionally calculated from the readout of the ToxBLAzer reagent. The ToxBLAzer assay was conducted following the manufacturer's instructions (Thermo Fisher, Waltham, MA, U.S.).13 Fluorescence

PPARγ = tested on: PPARγ; set-up: method as in Crosthwait et al. 2025; Sun et al. 2025; details: ref Crosthwait et al. 2025; Sun et al. 2025; cited from earlier work
[2] = 15 min
Procedure: The mixtures were adjusted to a final volume of 100 μL with acetonitrile (ACN). The reaction mix was incubated for 15 min at 30 °C and 1000 rpm on a Bioshake iQ orbital shaker from QInstruments (Jena, Germany). Additionally, a mixture without test compounds was prepared as a control. Subsequently, 10 μL of the reaction mixture was transferred into a conical dosing vial and evaporated under a nitrogen flow.
For chemical analysis, 10 μL of the reaction mixture was concentrated under vacuum (CentriVap, Labconco, Kansas City, MO, USA), diluted to 1 mg/L in ACN or ethyl acetate. The chemical analysis of the reaction mixtures was performed using liquid chromatography (LC) and gas chromatography (GC) coupled with various detection techniques, preferably Multiple Reaction Monitoring (MRM). Data acquisition and processing were carried out using the software MassHunter. Quantification was based on external calibrations.
The Cparent-Ratio quantifies the extent of oxidation of the parent compound after the abiotic CYP reaction. It was calculated as the ratio of the parent compound concentration after oxidation (C parent, after oxidation) to its concentration before oxidation (C parent, before oxidation) as shown in eq . […] 8 Cparent‐Ratio=Cparent,after oxidation/Cparent,before oxidation

Tox21 assays [3] = experiment: Re-evaluated Tox21 data (Adamovsky et al.), REPBPA and SRbaseline; details: for SRbaseline: Specificity Ratio;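 on all read-outs here: published Tox21 results reanalysed with a revised model predicting baseline toxicity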
From the text: We also reanalyzed the Tox21 data of Adamovsky et al. with the updated baseline toxicity prediction model (Table S2).

ERα [4] = experiment: Literature ERα reporter gene assays (comparison); format: cell-based; details: for EC10, approx.: in M (unit assumed)
Procedure: S5.4: Comparison with literature data for ERα reporter gene assays
To improve data comparability with our own results we converted reported EC₅₀ to EC₁₀ by dividing by 9, which is the ratio for log-logistic concentration-response curves with a hillslope of 1 (Figure S9a). Additionally, REPBPA values were calculated to enable a more consistent evaluation. Methodological differences between studies must be considered, as Reiniger et al.24 used the YES assay, while Goksøyr et al.25 applied ERα from fish (Figure S9b).
Cyan symbols highlight the ER-UAS-bla GripTite (this study and Tox21GenBLA).
(1 picture or pasted object on this page, not shown here)

Tox21 assays [5] = details: cited from earlier work
ERα [6] = details: cited from earlier work
[7] = TOX21_CAR_Antagonist, re-evaluated Tox21 data, ref Adamovsky et al 2024
[8] = TOX21_PPARg_BLA_antagonist_ratio
[9] = Tox21BLA, ref Adamovsky et al. 2024
[10] = Tox21Luc, ref Adamovsky et al. 2024
[11] = TOX21_PPARg_BLA_antagonist_ratio, re-evaluated Tox21 data, ref Adamovsky et al 2024
[12] = ATG_PPARg_TRANS_up, re-evaluated Tox21 data, ref Adamovsky et al 2024
[13] = ATG_hPPARg_XSP2_up, re-evaluated Tox21 data, ref Adamovsky et al 2024

CC1(C)C(O)C(C)(C)C1O (racemic) [r-TMCD, 2,2,4,4-Tetramethyl-1,3-cyclobutanediol (racemate)]
cytotoxicity,median REPBPA,IC10 [1]: 0.00844
IC10,Median (M) [1]: 8.29 × 10^–3 M
IC10, median [1]: 8290 µM

O=S(=O)(c1ccc(O)cc1)c1ccccc1O [2,4-BPS, 2,4'-Dihydroxydiphenyl sulfone]
PPARγ transactivation reported in the literature (PPARγ): No agonism was detected

CC(C)(c1ccc(OCC2CO2)cc1)c1ccc(OCC2CO2)cc1 (stereo not drawn) [BADGE, Bisphenol A diglycidyl ether]
cytotoxicity,median REPBPA,IC10 [1]: 1.82
IC10,Median (M) [1]: 3.85 × 10^–5 M
IC10, median [1]: 38.5 µM
% Loss [2]: -5%
Cparent-Ratio Mean [2]: 1.05
Cparent-Ratio Rep.1 [2]: 1.07
Cparent-Ratio Rep.1 % [2]: 107.02%
Cparent-Ratio Rep.2 [2]: 1.03
Cparent-Ratio Rep.2 % [2]: 103.48%

CC(C)CC(C)(c1ccc(O)cc1)c1ccc(O)cc1 [BP-MIBK, 4,4'-(1,3-Dimethylbutylidene)diphenol]
% Loss [2]: 10%

CC(c1ccccc1)(c1ccc(O)cc1)c1ccc(O)cc1 [BPAP, 4,4'-(1-Phenylethylidene)bisphenol]
REPBPA (Tox21 assays [3]; ATG_NRF2_ARE_CIS_up, Relative Effect Potency): 3.88
SRbaseline (Tox21 assays [3]; ATG_NRF2_ARE_CIS_up): 15.59
SRbaseline (Tox21 assays [3]; TOX21_CAR_Antagonist): 27.45
cytotoxicity,median REPBPA,IC10 [1]: 2.12
IC10,Median (M) [1]: 3.31 × 10^–5 M
IC10, median [1]: 33.1 µM
reduction of C parent after aCYP oxidation [2]: 25%
EC10, approx. (ERα [4]; approximated from literature EC50, ref Reiniger et Oehlmann 2024): ~1.04E-07
EC10, approx. (ERα [4]; approximated from literature values, ref Kojima et al 2019): ~1.45E-07
REPBPA (ERα [4]; relative estrogenic potency vs BPA, ref Kojima et al 2019): 2.52E-01
EC10 (Tox21 assays [5]; [7]): 1.11e-06 M
EC50 (ERα [6]; ref Kojima et al 2019): 1.9 µM
Efficacy % (ERα [6]; ref Pelch et al 2019): 45.40%
EC50 (ERα [6]; ref Reiniger et Oehlmann 2024): 0.932 µM
Efficacy % (ERα [6]; ref Reiniger et Oehlmann 2024): 1.06E+02%

CC(c1ccc(O)cc1)c1ccc(O)cc1 [BPE, 4,4′-Ethylidenbisphenol]
REPBPA (Tox21 assays [3]; TOX21_AR_LUC_MDAKB2_Antagonist_0,5nM_R1881, Relative Effect Potency): 1.49
SRbaseline (Tox21 assays [3]; TOX21_AR_LUC_MDAKB2_Antagonist_0,5nM_R1881): 76.62
REPBPA (Tox21 assays [3]; TOX21_CAR_Agonist, Relative Effect Potency): 0.13
SRbaseline (Tox21 assays [3]; TOX21_CAR_Agonist): 11.95
SRbaseline (Tox21 assays [3]; [8]): 12.24
REPBPA (Tox21 assays [3]; [9]): 4.35E-01
REPBPA (Tox21 assays [3]; [10]): 6.37E-01
cytotoxicity,median REPBPA,IC10 [1]: 0.88
IC10,Median (M) [1]: 7.91 × 10^–5 M
IC10, median [1]: 79.1 µM
% Loss [2]: 21%
EC10 (Tox21 assays [5]; TOX21_AR_LUC_MDAKB2_Antagonist_0,5nM_R1881, re-evaluated Tox21 data, ref Adamovsky et al 2024): 1.63e-06 M
EC10 (Tox21 assays [5]; TOX21_CAR_Agonist, re-evaluated Tox21 data, ref Adamovsky et al 2024): 1.04e-05 M
EC10 (Tox21 assays [5]; [11]): 1.02e-05 M
EC10 (Tox21 assays [5]; [9]): 1.36E-06
EC10 (Tox21 assays [5]; [10]): 3.57E-08

CC(C)c1cc(C(C)(C)c2ccc(O)c(C(C)C)c2)ccc1O [BPG, 2,2-Bis(4-hydroxy-3-isopropylphenyl)propane]
cytotoxicity,median REPBPA,IC10 [1]: 8.93
IC10,Median (M) [1]: 7.84 × 10^–6 M
IC10, median [1]: 7.84 µM

CC(C)(c1ccc(O)c(-c2ccccc2)c1)c1ccc(O)c(-c2ccccc2)c1 [BPPH, 2,2-Bis(2-hydroxy-5-biphenylyl)propane]
cytotoxicity,median REPBPA,IC10 [1]: 8.72
IC10,Median (M) [1]: 8.02 × 10^–6 M
IC10, median [1]: 8.02 µM
Efficacy % (ERα [6]; ref Pelch et al 2019): 27.00%

Oc1ccc(C2(c3ccc(O)cc3)CCCCC2)cc1 [BPZ, 1,1'-Bis(4-hydroxyphenyl)cyclohexane]
REPBPA (Tox21 assays [3]; TOX21_CAR_Antagonist, Relative Effect Potency): 1.19
SRbaseline (Tox21 assays [3]; TOX21_CAR_Antagonist): 59.87
SRbaseline (Tox21 assays [3]; [8]): 14.87
REPBPA (Tox21 assays [3]; [10]): 2.90E+00
cytotoxicity,median REPBPA,IC10 [1]: 1.33
IC10,Median (M) [1]: 5.28 × 10^–5 M
IC10, median [1]: 52.8 µM
EC10 (Tox21 assays [5]; [7]): 4.58e-07 M
EC10 (Tox21 assays [5]; [11]): 1.84e-06 M
EC10 (Tox21 assays [5]; [10]): 2.65E-08

Cc1ccc(S(=O)(=O)NC(=O)Nc2ccc(Cc3ccc(NC(=O)NS(=O)(=O)c4ccc(C)cc4)cc3)cc2)cc1 [BTUM, 4,4'-Bis(p-tolylsulfonylureido)diphenylmethane]
cytotoxicity,median REPBPA,IC10 [1]: 2.26
IC10,Median (M) [1]: 3.10 × 10^–5 M
IC10, median [1]: 31 µM
PPARγ transactivation reported in the literature (PPARγ): weaker effects

COC(=O)C(c1ccc(O)cc1)c1ccc(O)cc1 [Bz, Methyl bis(4-hydroxyphenyl)acetate]
cytotoxicity,median REPBPA,IC10 [1]: 0.19
IC10,Median (M) [1]: 3.73 × 10^–4 M
IC10, median [1]: 373 µM

CC(C)(c1cc(Br)c(O)c(Br)c1)c1cc(Br)c(O)c(Br)c1 [TBBPA, 3,3',5,5'-Tetrabromobisphenol A]
EC10 (Tox21 assays [5]; [12]): 4.64e-07 M
EC10 (Tox21 assays [5]; ATG_hPPARg_XSP1_up, re-evaluated Tox21 data, ref Adamovsky et al 2024): 5.02e-07 M
EC10 (Tox21 assays [5]; [13]): 2e-07 M
EC10 (Tox21 assays [5]; [11]): 6.2e-08 M

CC(C)(c1cc(Cl)c(O)c(Cl)c1)c1cc(Cl)c(O)c(Cl)c1 [TCBPA, 2,2',6,6'-Tetrachlorobisphenol A]
REPBPA (Tox21 assays [3]; ATG_PPARg_TRANS_up, Relative Effect Potency): 6.78
SRbaseline (Tox21 assays [3]; ATG_PPARg_TRANS_up): 37.70
REPBPA (Tox21 assays [3]; ATG_hPPARg_XSP2_up, Relative Effect Potency): 3.23
SRbaseline (Tox21 assays [3]; ATG_hPPARg_XSP2_up): 22.19
SRbaseline (Tox21 assays [3]; [8]): 22.07
cytotoxicity,median REPBPA,IC10 [1]: 0.89
IC10,Median (M) [1]: 7.84 × 10^–5 M
IC10, median [1]: 78.4 µM
EC10 (Tox21 assays [5]; [12]): 2.35e-07 M
EC10 (Tox21 assays [5]; [13]): 4e-07 M
EC10 (Tox21 assays [5]; [11]): 4.02e-07 M

CC1(C)[C@H](O)C(C)(C)[C@H]1O [t-TMCD, trans-2,2,4,4-Tetramethyl-1,3-cyclobutanediol]
cytotoxicity,median REPBPA,IC10 [1]: 0.00783
IC10,Median (M) [1]: 8.94 × 10^–3 M
IC10, median [1]: 8940 µM
